Holding throughout (assay type): functional
Test [1] concerns MCF7. The experiment in a line: Induction of apoptosis in human MCF7 cells assessed as necrotic cells at 50 uM after 6 hrs by Annexin V-FITC/propidium iodide staining-based flow cytometric analysis (reference value: 0.5%).
Test [2] deals with MCF7. The experiment in a line: Induction of apoptosis in human MCF7 cells assessed as necrotic cells at 1 uM after 24 hrs by Annexin V-FITC/propidium iodide staining-based flow cytometric analysis (reference value: 0.2%).
For test [3], the system named is MCF7. Put plainly: Induction of apoptosis in human MCF7 cells assessed as viable cells at 5 uM after 24 hrs by Annexin V-FITC/propidium iodide staining-based flow cytometric analysis (reference value: 92.1%). The note with it: MCF7, 24 h, read-out: Activity.
Test [4] concerns MCF7. The experiment in a line: Induction of apoptosis in human MCF7 cells assessed as viable cells at 25 uM after 24 hrs by Annexin V-FITC/propidium iodide staining-based flow cytometric analysis (reference value: 92.1%). The note with it: MCF7, 24 h, read-out: Activity.

For the molecule `COc1cc([C@@H]2c3cc4c(cc3[C@@H](O[C@@H]3O[C@@H]5CO[C@@H](C)O[C@H]5[C@H](O)[C@H]3O)[C@H]3COC(=O)[C@H]23)OCO4)cc(OC)c1O` [ETOPOSIDE], the Activity in the test with MCF7 [1] worked out at 0.8%; with MCF7 [2], 0.2%. Moreover, the viability at 5 µM in the test with MCF7 [3] is 84.2%. Besides, the viability at 25 µM with MCF7 [4] was found to be 81.1%.

The values above are taken from ChEMBL document CHEMBL4346667 (Eur J Med Chem, 2019).
